“Also recorded” adds a separate entry of the source. Like-named read-outs stand apart in the source and are kept apart here. *: point of attachment. FITC = O=C1OC2(c3ccc(O)cc3Oc3cc(O)ccc32)c2ccc(NC(=S)*)cc21; Ahx = NCCCCCC(=O)O
Tests used:
[1] = test system: currently used micro-organisms; assay type: biochemical
[2] = test system: currently used micro-organisms; assay type: biochemical; remark: listed apart in the source
[3] = test system: P. aeruginosa-derived enzyme; assay type: biochemical, Pseudomonas aeruginosa
[4] = target: T1, lysostaphin (Staphylococcus simulans, UniProt P10547); assay type: biochemical
T1 construct: purchased Sigma
T1 sequence (P10547 248-493, species assumed): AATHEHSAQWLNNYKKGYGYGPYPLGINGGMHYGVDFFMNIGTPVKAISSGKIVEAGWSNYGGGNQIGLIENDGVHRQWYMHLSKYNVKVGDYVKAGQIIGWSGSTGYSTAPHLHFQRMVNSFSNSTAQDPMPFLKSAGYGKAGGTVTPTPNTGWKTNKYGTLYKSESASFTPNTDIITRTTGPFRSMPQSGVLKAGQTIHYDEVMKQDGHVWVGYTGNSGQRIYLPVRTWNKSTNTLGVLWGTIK

[5] = test system: B. thuringiensis-derived enzyme; assay type: biochemical
[6] = test system: enzymes derived from V. cholerae; assay type: biochemical
[7] = test system: (virulent) B. anthracis-derived enzyme; assay type: biochemical, Bacillus anthracis
[8] = test system: (virulent) B. anthracis-derived enzyme; assay type: biochemical, Bacillus anthracis; remark: listed apart in the source
[9] = test system: enzymes derived from B. globigii; assay type: biochemical
[10] = test system: Collagenase Vibrio/Dispase; assay type: biochemical, Vibrio sp
[11] = target: T2, Thermolysin (Bacillus thermoproteolyticus, UniProt P00800); assay type: biochemical
T2 construct: purchased Sigma
T2 sequence (P00800 233-548): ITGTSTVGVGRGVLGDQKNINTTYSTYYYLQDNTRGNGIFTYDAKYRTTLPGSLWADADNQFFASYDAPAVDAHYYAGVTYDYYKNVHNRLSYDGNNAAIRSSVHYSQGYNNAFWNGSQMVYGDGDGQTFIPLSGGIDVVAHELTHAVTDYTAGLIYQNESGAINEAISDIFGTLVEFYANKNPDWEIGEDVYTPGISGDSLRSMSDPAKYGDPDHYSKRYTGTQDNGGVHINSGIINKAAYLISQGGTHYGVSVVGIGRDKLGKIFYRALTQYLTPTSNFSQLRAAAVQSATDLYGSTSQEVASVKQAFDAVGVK

[12] = test system: B. cereus cells; assay type: cell-based; conditions: for Location of fluorescent BikKam1 fragments (fluorescence microscopy): 0.01 M BikKam1
[13] = target: Anthrax Lethal Factor (LF) (Bacillus anthracis, UniProt P15917); assay type: biochemical
Anthrax Lethal Factor (LF), sequence (P15917 34-809 limits assumed): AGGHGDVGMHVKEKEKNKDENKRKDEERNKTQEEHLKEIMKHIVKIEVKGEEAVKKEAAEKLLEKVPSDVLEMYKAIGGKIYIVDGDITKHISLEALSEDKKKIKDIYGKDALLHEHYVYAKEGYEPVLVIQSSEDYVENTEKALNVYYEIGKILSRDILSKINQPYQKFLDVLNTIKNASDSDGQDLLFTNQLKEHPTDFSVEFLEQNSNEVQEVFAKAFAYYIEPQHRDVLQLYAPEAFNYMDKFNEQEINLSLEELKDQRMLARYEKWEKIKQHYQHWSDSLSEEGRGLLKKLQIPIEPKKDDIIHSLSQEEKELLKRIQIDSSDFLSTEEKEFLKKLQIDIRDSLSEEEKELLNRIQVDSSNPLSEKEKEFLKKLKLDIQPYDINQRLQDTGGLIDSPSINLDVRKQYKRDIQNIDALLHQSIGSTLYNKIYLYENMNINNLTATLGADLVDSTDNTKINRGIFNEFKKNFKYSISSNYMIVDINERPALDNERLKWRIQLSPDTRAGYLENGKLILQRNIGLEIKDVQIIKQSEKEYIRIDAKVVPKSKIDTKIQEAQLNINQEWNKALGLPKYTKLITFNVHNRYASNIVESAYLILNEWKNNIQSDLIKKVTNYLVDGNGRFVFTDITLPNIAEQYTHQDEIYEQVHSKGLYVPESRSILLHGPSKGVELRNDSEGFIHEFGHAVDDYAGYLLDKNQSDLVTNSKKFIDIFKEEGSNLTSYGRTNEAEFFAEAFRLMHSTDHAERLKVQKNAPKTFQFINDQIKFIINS

[14] = test system: Collagenase Clostridium; assay type: biochemical, Clostridium sp.
[15] = test system: B. thuringiensis; assay type: biochemical
[16] = test system: B. cereus; assay type: biochemical
[17] = test system: V. cholerae-derived enzyme; assay type: biochemical
[18] = test system: enzymes derived from E. herbicola; assay type: biochemical
[19] = test system: enzymes derived from C. botulinum; assay type: biochemical

## FITC-Ahx-Pro-Hyp-Lys-DABCYL [BikKam9]
[1]
  Enzyme activity on substrate with the currently used micro-organisms: No significant enzyme activity
[2]
  Enzyme activity on substrate with the currently used micro-organisms: No significant enzyme activity

## FITC-Ahx-Gly-Gly-DABCYL [BikKam23]
[3]
  Activity for P. aeruginosa compared to the other BikKam20-24 substrates: lower than BikKam20-BikKam22; also recorded: significant decrease in activity; also recorded: lower activity
  Fluorescent signal of FRET: cleavage of substrate by P. aeruginosa-derived enzyme: specifically cleaved
[4]
  Cleavage of substrate by lysostaphin: not cleaved; also recorded: does not interact

## FITC-Ahx-Leu-DVal-Lys-DABCYL [BikKam6]
[2]
  Background with bacteria other than (virulent) B. anthracis: hardly revealed any background
[2]; at 60 min
  Background with other bacteria than (virulent) B. anthracis: Some weak background

## FITC-Ahx-Gly-DABCYL [BikKam24]
[1]
  Enzyme activity on substrate with the currently used micro-organisms: No significant enzyme activity
[3]
  Fluorescent signal of FRET: cleavage of substrate by P. aeruginosa-derived enzyme: no P. aeruginosa activity
[4]
  Cleavage of substrate by lysostaphin: No significant enzyme activity

## FITC-Ahx-Leu-DLeu-Leu-Lys-DABCYL [BikKam5]
[5]
  Fluorescent signal of FRET: cleavage of substrate by B. thuringiensis-derived enzyme: Some weak activity
[6]
  Fluorescent signal of FRET: cleavage of substrate by V. cholerae: Some cleavage
[7]
  Fluorescent signal of FRET: cleavage of substrate by B. anthracis-derived enzyme: specifically cleaved
[8]
  Fluorescent signal of FRET: cleavage of substrate by B. anthracis-derived enzyme: specifically cleaved

## FITC-Ahx-DLeu-DLeu-Lys-DABCYL [BikKam4]
[5]
  Fluorescent signal of FRET: cleavage of substrate by B. thuringiensis-derived enzyme: specifically cleaved
[7]
  Fluorescent signal of FRET: cleavage of substrate by B. anthracis-derived enzyme: specifically cleaved
[8]
  Fluorescent signal of FRET: cleavage of substrate by B. anthracis-derived enzyme: specifically cleaved

## FITC-Ahx-Gly-Gly-Gly-Gly-Gly-DABCYL [BikKam20]
[3]
  Activity for P. aeruginosa compared to the other BikKam20-24 substrates: increase in cleavage
  Fluorescent signal of FRET: cleavage of substrate by P. aeruginosa-derived enzyme: specifically cleaved
[4]
  Cleavage of substrate by lysostaphin: specifically cleaved

## FITC-Ahx-Gly-DAla-Lys-DABCYL [BikKam8]
[1]
  Enzyme activity on substrate with the currently used micro-organisms: No significant enzyme activity
[2]
  Enzyme activity on substrate with the currently used micro-organisms: No significant enzyme activity

## FITC-Ahx-Gly-Gly-Gly-DABCYL [BikKam22]
[3]
  Activity for P. aeruginosa compared to the other BikKam20-24 substrates: slight increase in activity; also recorded: increase in cleavage
  Fluorescent signal of FRET: cleavage of substrate by P. aeruginosa-derived enzyme: specifically cleaved
[4]
  Cleavage of substrate by lysostaphin: somewhat cleavage

## FITC-Ahx-Leu-DLeu-Lys-DABCYL [BikKam1]
[9]
  Fluorescent signal of FRET: cleavage of substrate by B. globigii: not capable of cleaving
[10]
  FRET signal with purified collagenase (Vibrio sp): No signal
[5]
  Fluorescent signal of FRET: cleavage of substrate by B. thuringiensis-derived enzyme: Some weak activity
[11]
  FRET signal with purified thermolysin: No signal
[12]; 0 hr
  Fluorescent bacteria (fluorescence microscopy): no fluorescent bacteria could be detected
[12]; B. cereus, 2 hr incubation
  Location of fluorescent BikKam1 fragments (fluorescence microscopy): could be detected in the cytoplasm
[12]; B. cereus, 4 hr
  Location of fluorescent BikKam1 fragments (fluorescence microscopy): besides in the cytoplasm also present in the cell wall at the new division sides
[12]; B. cereus, 16 hr incubation
  Location of fluorescent BikKam1 fragments (fluorescence microscopy): moved from the cytoplasm to the side walls
[12]; B. cereus, time not stated
  Fluorescent BikKam1 fragments in bacteria (fluorescence microscopy): Detection of fluorescent BikKam1 fragments in the cytoplasm
[13]
  FRET signal with purified Lethal Factor: No signal
[7]
  Fluorescent signal of FRET: cleavage of substrate by B. anthracis-derived enzyme: specifically cleaved
[14]
  FRET signal with purified collagenase (Clostridium sp.): No signal
[8]
  Fluorescent signal of FRET: cleavage of substrate by B. anthracis-derived enzyme: specifically cleaved

## FITC-Ahx-Gly-DLeu-Lys-DABCYL [BikKam7]
[15]
  Fluorescent signal of FRET: cleavage of substrate by B. thuringiensis: weak signal
[7]
  Fluorescent signal of FRET: cleavage of substrate by B. anthracis-derived enzyme: specifically cleaved
[8]
  Fluorescent signal of FRET: cleavage of substrate by B. anthracis-derived enzyme: specifically cleaved

## FITC-Ahx-DLeu-Leu-Lys-DABCYL [BikKam2]
[16]
  Fluorescent signal of FRET: cleavage of substrate by B. cereus: weak signal
[15]
  Fluorescent signal of FRET: cleavage of substrate by B. thuringiensis: weak signal
[5]
  Fluorescent signal of FRET: cleavage of substrate by B. thuringiensis-derived enzyme: specifically cleaved
[7]
  Fluorescent signal of FRET: cleavage of substrate by B. anthracis-derived enzyme: specifically cleaved
[8]
  Fluorescent signal of FRET: cleavage of substrate by B. anthracis-derived enzyme: specifically cleaved

## FITC-Ahx-Gly-Gly-Gly-Gly-DABCYL ({FITC-Ahx}-GGGG-{DABCYL}) [BikKam21]
[3]
  Activity for P. aeruginosa compared to the other BikKam20-24 substrates: slight increase in activity
[4]
  Cleavage of substrate by lysostaphin: specifically cleaved

## FITC-Ahx-Leu-Leu-Lys-DABCYL [BikKam3]
[9]
  Fluorescent signal of FRET: cleavage of substrate by B. globigii: show activity
[17]
  Fluorescent signal of FRET: cleavage of substrate by V. cholerae-derived enzyme: specifically cleaved
[5]
  Fluorescent signal of FRET: cleavage of substrate by B. thuringiensis-derived enzyme: specifically cleaved
[6]
  Fluorescent signal of FRET: cleavage of substrate by V. cholerae: show activity
[18]
  Fluorescent signal of FRET: cleavage of substrate by E. herbicola: show activity
[19]
  Fluorescent signal of FRET: cleavage of substrate by C. botulinum: show activity

From patent publication US8852883B2 (priority 2008, dated 2014)
